# Source: PMC9609924, “In Vitro Characterization of Inhibitors for Lung A549 and Leukemia K562 Cell Lines from Fungal Transformation of Arecoline Supported by In Silico Docking to M3-mAChR and ADME Prediction” (Pharmaceuticals, 2022)
# Structures can show the parent of a compound that is named as a salt. Where two headings read alike, the source gives them in different places.
# Tests used:
# leukemia K562 cell line = test: MTT cytotoxicity assay, leukemia K562; settings: Homo sapiens, K562, 48 h, read-out: Cytotoxicity IC50 ± SD, Leukemia Cancer Cell K562
# Procedure: (§1) Cell lines were obtained from the American Type Culture Collection (ATCC). Cells were cultured using Dulbecco’s Modified Eagle’s Medium (DMEM) (Invitrogen/Life Technologies, Waltham, MA, USA) supplemented with 10% fetal bovine serum (FBS, Hyclone, Logan, UT, USA), 10 µg/mL of insulin (Sigma Aldrich, St. Louis, MO, USA) and 1% mixture of penicillin and streptomycin. After incubation for 48 h with the isolated compounds, the viability of cells was measured using an MTT assay to determine the toxic concentration for each compound using the microplate reader according to the published procedures.
# [1] = system: non-small-cell lung cancer A549 cell line; test: cells; settings: Homo sapiens, A549, 48 h, read-out: Cytotoxicity IC50 ± SD, Non-Small-Cell Lung Cancer A549
# Procedure: as §1
# normal lung cell WI38 = test: MTT cytotoxicity assay, normal lung cell WI38; type: cell-based; settings: for IC50: Homo sapiens, read-out: Normal Lung Cell Line WI38 IC50 ± SD
# Procedure: (§2) The selectivity index identifies the selectivity of the tested compounds toward the cancer cell line and is calculated by dividing the IC50 against the normal cell line by the IC50 against the cancer cells.
# [2] = system: normal blood cell PCS-800-016; test: MTT cytotoxicity assay, normal blood cell PCS-800-016; type: cell-based; settings: for IC50: read-out: Normal Blood Cell PCS-800-016 IC50 ± SD
# Procedure: as §2
# [3] = system: non-small-cell lung cancer A549 cells; test: Flow cytometry of DNA content, cell cycle distribution, A549; type: cell-based
# Procedure: (§3) Furthermore, compound 1 induced early and late apoptosis and necrosis (5.09%, 10.38%, and 13.14%, respectively) compared to the untreated cells (0.29%, 0.18%, and 0.79, respectively).
# (§4) For cell cycle analysis, a propidium iodide flow cytometry kit (ab139418, Abcam, Cambridge, UK) was used. For apoptosis, we used an annexin V apoptosis kit, which is composed of annexin V-FITC (fluorescein isothiocyanate), 1X binding buffer, and propidium iodide. Detection was conducted by measuring DNA content using a flow cytometer.
# [4] = system: non-small-cell lung cancer A549 cells; test: Annexin V-FITC/propidium iodide apoptosis detection, A549; type: cell-based
# Procedure: as §3, §4
# [5] = system: leukemia cancer K562 cells; test: Flow cytometry of DNA content, cell cycle distribution, K562; type: cell-based, human; settings: for %Pre-G1 (sub-G1) cells, cell cycle distribution: untreated control 1.68%; for %G2/M cells, cell cycle distribution: untreated control 12.59%; for %S cells, cell cycle distribution: untreated control 42.57%; for %G0-G1 cells, cell cycle distribution: untreated control 44.84%
# Procedure: as §4
# [6] = system: leukemia cancer K562 cells; test: Annexin V-FITC/propidium iodide apoptosis detection, K562; type: cell-based, human; settings: for Late apoptosis: untreated control 0.04%; for Early apoptosis: untreated control 0.37%; for Necrosis: untreated control 1.27%; for Total cell death: untreated control 1.68%
# Procedure: as §4
compound,measurement,setting,value
"CN[C@@H]1C[C@H]2O[C@@](C)([C@@H]1OC)n1c3ccccc3c3c4c(c5c6ccccc6n2c5c31)C(=O)NC4 [Staurosporine, reference compound]",IC50,leukemia K562 cell line,5.07 ± 0.36 µM
"COc1cccc2c1C(=O)c1c(O)c3c(c(O)c1C2=O)C[C@@](O)(C(=O)CO)C[C@@H]3O[C@H]1C[C@H](N)[C@H](O)[C@H](C)O1 [Doxorubicin, reference compound]",IC50,[1],5.05 ± 0.13 µM
same,IC50,leukemia K562 cell line,6.94 ± 0.21 µM
"CN1CCC(O)CC1 [Compound 1, 1-Methylpiperidin-4-ol]",IC50,[1],3.08 ± 0.19 µM
same,IC50,leukemia K562 cell line,1.56 ± 0.11 µM
same,IC50,"normal lung cell WI38; WI-38, MTT, 48 h incubation",18.3 ± 0.91 µM
same,"SI (Lung), selectivity index",normal lung cell WI38; IC50 against normal WI38 divided by IC50 against A549,5.93
same,"SI (Blood Cell), selectivity index",[2]; IC50 against normal PCS-800-016 divided by IC50 against K562,6.32
same,IC50,"[2]; MTT, 48 h incubation",9.87 ± 0.49 µM
same,Phase of cell cycle arrest,[3],G2/M phase
same,"%Pre-G1 (sub-G1) cells, cell cycle distribution",[3]; untreated control 1.26%,28.61%
same,"%G2/M cells, cell cycle distribution",[3]; untreated control 8.09%,24.88%
same,"%S cells, cell cycle distribution",[3]; untreated control 35.85%,31.01%
same,"%G0-G1 cells, cell cycle distribution",[3]; untreated control 56.06%,44.11%
same,Fold increase of early apoptosis than control,"[4]; A549, versus untreated cells",17.55 fold
same,Fold increase of late apoptosis than control,"[4]; A549, versus untreated cells",57.67 fold
same,Fold increase of necrosis than control,"[4]; A549, versus untreated cells",16.63 fold
same,Fold increase of total cell death than control,"[4]; A549, versus untreated cells",22.71 fold
same,Late apoptosis,"[4]; A549, untreated control 0.18%",10.38%
same,Early apoptosis,"[4]; A549, untreated control 0.29%",5.09%
same,Necrosis,"[4]; A549, untreated control 0.79%",13.14%
same,Total cell death,"[4]; A549, untreated control 1.26%",28.61%
"O=C(O)C1CCCNC1 [Compound 3, D-piperidine-3-carboxylic acid]",IC50,[1],7.33 ± 0.45 µM
same,IC50,leukemia K562 cell line,3.33 ± 0.24 µM
same,IC50,"normal lung cell WI38; WI-38, 48 h",26.6 ± 1.33 µM
same,IC50,[2]; 48 h,37.9 ± 1.89 µM
same,Phase of cell cycle arrest,[5],S phase
same,"%Pre-G1 (sub-G1) cells, cell cycle distribution",[5],43.22%
same,"%G2/M cells, cell cycle distribution",[5],7.48%
same,"%S cells, cell cycle distribution",[5],57.23%
same,"%G0-G1 cells, cell cycle distribution",[5],35.29%
same,Late apoptosis,[6],30.35%
same,Early apoptosis,[6],2.33%
same,Necrosis,[6],10.54%
same,Total cell death,[6],43.22%
"CN1CCC=C(C(=O)O)C1 [Compound 4, 1-Methyl-1,2,5,6-tetrahydropyridine-3-carboxylic acid]",IC50,[1],90.9 ± 0.59 µM
same,IC50,leukemia K562 cell line,67.3 ± 0.53 µM
"C[N+]1([O-])CCC(O)CC1 (stereo not drawn) [Compound 2, 4-Hydroxy-1-methylpiperidine 1-oxide]",IC50,[1],> 100 µM
same,IC50,leukemia K562 cell line,> 100 µM
"COC(=O)C1=CCCN(C)C1 [Arecoline hydrobromide, reference compound]",IC50,[1],11.7 ± 0.71 µM
same,IC50,leukemia K562 cell line,15.3 ± 1.08 µM
"O=C(O)c1cccnc1 [Compound 5, Pyridine-3-carboxylic acid]",IC50,[1],3.29 ± 0.2 µM
same,IC50,leukemia K562 cell line,2.15 ± 0.15 µM
same,IC50,"normal lung cell WI38; WI-38, MTT, 48 h incubation",13.9 ± 0.69 µM
same,IC50,"[2]; MTT, 48 h incubation",20.2 ± 1.01 µM
same,Phase of cell cycle arrest,[5],S phase
same,"%Pre-G1 (sub-G1) cells, cell cycle distribution",[5],31.74%
same,"%G2/M cells, cell cycle distribution",[5],10.68%
same,"%S cells, cell cycle distribution",[5],52.91%
same,"%G0-G1 cells, cell cycle distribution",[5],36.41%
same,Late apoptosis,[6],11.74%
same,Early apoptosis,[6],2.94%
same,Necrosis,[6],17.06%
same,Total cell death,[6],31.74%
